Molecules are shown by their SMILES.

For the assay, the system named is FeCl2-induced carotid artery thrombosis. The assay is described as follows: Arterial thrombosis model (FeCl2 carotid artery). The class given is in vivo, rat. Conditions: i.v. 12 mg/kg plus 12 mg/kg/hr. The procedure: General Surgical Preparation Male Sprague Dawley rats (310 to 390 g) were anesthetized with Na-pentobarbital (50 mg/kg i.p.). The left jugular vein was cannulated with PE-50 tubing for drug administration, and the trachea was intubated with PE-205 tubing to ensure airway patency. In some animals, a carotid artery was cannulated with PE-50 tubing to obtain blood samples, and a procedure was followed as described in Schumacher et al., “Comparison of Thrombin Active-Site and Exosite Inhibitors and Heparin in Experimental Models of Arterial and Venous Thrombosis and Bleeding,” J. Pharmacol. Exp. Therap., Vol. 267 (1993), at pp. 1237-42; Schumacher et al., Effects of Antithrombotic Drugs in a Rat Model of Aspirin-Insensitive Arterial Thrombosis, Thromb Haemostasis, Vol. 69 (1993), at pp. 509-514; or Schumacher et al., Effect of a Novel Thrombin Active-Site Inhibitor on Arterial and Venous Thrombosis, Eur J Pharmacol., Vol. 259 (1994), at pp. 165-171, each of which is incorporated herein by reference. […]
Arterial Thrombosis The left carotid artery was exposed and a piece of parafilm “M” (American National Can, Greenwich, Conn.) was inserted under the vessel. […] Carotid blood flow (CBF) was monitored continuously on a TA3800 physiologic recorder (Gould, Cleveland, Ohio). Total CBF was determined and normalized as percent of baseline (0 min) flow over 60 min to provide a measure of average blood flow during thrombus formation.
Statistical Analysis In the venous and arterial thrombosis procedures, treatment effects on thrombus weight, baseline blood flow, and average blood flow during thrombosis were determined by analysis of variance with Dunnett's test for comparison to the vehicle group. […] Treatment effects on bleeding times were determined by analysis of variance with Dunnett's test for comparison to the vehicle group. Both post-treatment and pre-treatment bleeding times and the relative bleeding time increases in sec were analyzed. […]

Turning to `CC(C)(C)NC(=O)N1CCN(C(=O)N2C(=O)[C@H](CCCNC(=N)N)[C@H]2C(=O)O)CC1` [Example 4], the “decrease in thrombus weight” value (rat carotid artery, FIG. 2) worked out at 73%. For the setting “rat”, the “average blood flow during thrombosis and vessel patency” value is “improvement”; the “effect on FeCl2-induced carotid artery thrombosis (carotid blood flow, FIG. 1)” value is “prevented”.
